Read-outs that look alike come from different tables or passages of the source.
Columns and labels:
[1] = test system: H2O2 induced pAkt in D-U937 cells; test: PI3Kδ Cell Based Assay (H2O2 induced pAkt); conditions: Homo sapiens
Summary of the method: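 U937 cells differentiated to macrophage-type cells with PMA (100 ng/mL, 48 to 72 hr), then stimulated with H2O2. pAkt and total Akt detected by antibody-based immunoassay. Ratio of pAkt to total Akt signal used; IC50 from concentration-response curves of serially diluted compounds.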

[2] = molecular target: recombinant PI3 kinase γ (Homo sapiens (Human), UniProt P48736); test: Enzyme Inhibition Assay (HTRF PI3K enzyme assay, TR-FRET); assay type: biochemical
Sequence of recombinant PI3 kinase γ (P48736 whole entry, the tested form may be a part): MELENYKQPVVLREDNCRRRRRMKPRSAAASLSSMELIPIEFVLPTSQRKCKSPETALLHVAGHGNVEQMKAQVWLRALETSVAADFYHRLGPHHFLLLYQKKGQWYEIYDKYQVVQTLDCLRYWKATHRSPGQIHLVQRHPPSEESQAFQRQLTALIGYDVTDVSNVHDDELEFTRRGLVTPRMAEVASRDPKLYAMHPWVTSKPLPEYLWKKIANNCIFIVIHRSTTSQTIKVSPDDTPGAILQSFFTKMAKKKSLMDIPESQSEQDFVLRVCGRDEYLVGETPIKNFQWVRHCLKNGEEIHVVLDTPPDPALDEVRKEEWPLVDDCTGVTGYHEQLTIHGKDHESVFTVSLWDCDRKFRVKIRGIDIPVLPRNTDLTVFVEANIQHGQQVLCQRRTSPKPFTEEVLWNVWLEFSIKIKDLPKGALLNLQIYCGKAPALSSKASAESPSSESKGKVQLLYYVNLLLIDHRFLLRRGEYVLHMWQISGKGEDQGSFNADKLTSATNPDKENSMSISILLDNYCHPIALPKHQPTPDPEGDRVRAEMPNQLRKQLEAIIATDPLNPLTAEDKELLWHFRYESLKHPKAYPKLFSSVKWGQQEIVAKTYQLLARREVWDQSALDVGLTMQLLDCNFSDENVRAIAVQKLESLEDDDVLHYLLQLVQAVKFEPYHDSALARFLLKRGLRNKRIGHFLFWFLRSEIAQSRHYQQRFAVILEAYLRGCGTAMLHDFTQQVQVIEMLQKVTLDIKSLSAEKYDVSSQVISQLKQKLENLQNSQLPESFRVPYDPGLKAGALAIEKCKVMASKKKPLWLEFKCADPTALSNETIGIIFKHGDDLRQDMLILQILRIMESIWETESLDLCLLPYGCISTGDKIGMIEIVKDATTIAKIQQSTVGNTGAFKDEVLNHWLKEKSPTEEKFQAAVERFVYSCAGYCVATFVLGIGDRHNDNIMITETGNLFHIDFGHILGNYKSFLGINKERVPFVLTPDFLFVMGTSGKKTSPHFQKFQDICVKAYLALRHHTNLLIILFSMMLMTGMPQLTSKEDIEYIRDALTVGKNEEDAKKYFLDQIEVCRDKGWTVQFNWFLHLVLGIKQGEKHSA
Summary of the method: (§1)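 Recombinant PI3Kα, δ or γ incubated with PIP2 substrate and compound for 2 hr at RT. Stop solution with biotin-PIP3 and GST-GRP1 PH domain/Eu-anti-GST/SA-APC detection mix added, then 15-18 hr at RT. PIP3 formed reduces the TR-FRET signal.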

[3] = molecular target: recombinant PI3 kinase α (Homo sapiens (Human), UniProt P42336); test: as above; assay type: biochemical
Sequence of recombinant PI3 kinase α (P42336 whole entry): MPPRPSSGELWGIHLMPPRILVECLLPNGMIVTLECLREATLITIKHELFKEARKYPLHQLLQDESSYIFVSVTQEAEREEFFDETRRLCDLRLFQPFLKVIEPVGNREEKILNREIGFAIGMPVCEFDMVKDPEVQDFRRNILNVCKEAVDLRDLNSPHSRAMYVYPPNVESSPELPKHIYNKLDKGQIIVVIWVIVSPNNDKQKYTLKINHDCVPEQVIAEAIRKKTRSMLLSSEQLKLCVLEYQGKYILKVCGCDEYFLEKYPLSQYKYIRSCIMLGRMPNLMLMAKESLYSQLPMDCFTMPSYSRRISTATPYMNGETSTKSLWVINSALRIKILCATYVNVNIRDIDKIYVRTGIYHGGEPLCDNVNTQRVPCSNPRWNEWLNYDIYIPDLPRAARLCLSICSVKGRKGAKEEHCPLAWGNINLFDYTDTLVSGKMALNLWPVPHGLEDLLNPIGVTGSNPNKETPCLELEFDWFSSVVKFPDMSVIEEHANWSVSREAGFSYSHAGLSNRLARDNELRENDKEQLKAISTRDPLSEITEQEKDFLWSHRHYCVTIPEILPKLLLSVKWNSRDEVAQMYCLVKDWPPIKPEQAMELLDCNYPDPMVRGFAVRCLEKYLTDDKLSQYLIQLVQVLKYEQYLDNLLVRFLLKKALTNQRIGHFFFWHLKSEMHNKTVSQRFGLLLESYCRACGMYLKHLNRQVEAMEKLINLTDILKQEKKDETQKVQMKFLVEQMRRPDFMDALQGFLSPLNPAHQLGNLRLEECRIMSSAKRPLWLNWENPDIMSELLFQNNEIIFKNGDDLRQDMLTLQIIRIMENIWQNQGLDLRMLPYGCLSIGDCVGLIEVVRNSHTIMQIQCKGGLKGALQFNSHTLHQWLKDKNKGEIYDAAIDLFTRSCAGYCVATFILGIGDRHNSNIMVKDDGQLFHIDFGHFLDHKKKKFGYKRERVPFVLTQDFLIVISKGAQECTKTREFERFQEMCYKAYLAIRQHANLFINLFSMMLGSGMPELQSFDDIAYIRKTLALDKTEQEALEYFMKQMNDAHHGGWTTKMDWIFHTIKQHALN
Sequence of recombinant PI3 kinase α (P27986 whole entry partner): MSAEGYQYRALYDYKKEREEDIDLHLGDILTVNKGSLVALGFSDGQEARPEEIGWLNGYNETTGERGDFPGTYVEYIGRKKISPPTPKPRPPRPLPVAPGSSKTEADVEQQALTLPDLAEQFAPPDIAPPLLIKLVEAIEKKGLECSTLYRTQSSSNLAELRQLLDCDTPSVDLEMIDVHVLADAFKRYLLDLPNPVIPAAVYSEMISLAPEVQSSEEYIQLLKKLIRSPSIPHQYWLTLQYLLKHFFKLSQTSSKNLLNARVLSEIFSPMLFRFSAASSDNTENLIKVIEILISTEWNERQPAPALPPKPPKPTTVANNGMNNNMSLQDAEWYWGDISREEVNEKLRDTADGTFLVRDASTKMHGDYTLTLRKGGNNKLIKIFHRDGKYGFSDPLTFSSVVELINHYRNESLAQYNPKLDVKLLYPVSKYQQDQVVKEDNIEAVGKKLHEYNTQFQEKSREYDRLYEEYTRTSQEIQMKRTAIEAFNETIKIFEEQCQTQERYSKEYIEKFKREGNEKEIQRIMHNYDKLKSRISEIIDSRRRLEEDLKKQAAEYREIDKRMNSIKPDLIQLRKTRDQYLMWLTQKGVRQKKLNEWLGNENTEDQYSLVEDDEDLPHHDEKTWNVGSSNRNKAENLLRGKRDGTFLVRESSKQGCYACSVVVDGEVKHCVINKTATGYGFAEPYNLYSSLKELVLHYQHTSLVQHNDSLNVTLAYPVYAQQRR
Summary of the method: as §1

[4] = molecular target: recombinant PI3 kinase δ (Homo sapiens (Human), UniProt O00329); test: as above; assay type: biochemical
Sequence of recombinant PI3 kinase δ (O00329 whole entry): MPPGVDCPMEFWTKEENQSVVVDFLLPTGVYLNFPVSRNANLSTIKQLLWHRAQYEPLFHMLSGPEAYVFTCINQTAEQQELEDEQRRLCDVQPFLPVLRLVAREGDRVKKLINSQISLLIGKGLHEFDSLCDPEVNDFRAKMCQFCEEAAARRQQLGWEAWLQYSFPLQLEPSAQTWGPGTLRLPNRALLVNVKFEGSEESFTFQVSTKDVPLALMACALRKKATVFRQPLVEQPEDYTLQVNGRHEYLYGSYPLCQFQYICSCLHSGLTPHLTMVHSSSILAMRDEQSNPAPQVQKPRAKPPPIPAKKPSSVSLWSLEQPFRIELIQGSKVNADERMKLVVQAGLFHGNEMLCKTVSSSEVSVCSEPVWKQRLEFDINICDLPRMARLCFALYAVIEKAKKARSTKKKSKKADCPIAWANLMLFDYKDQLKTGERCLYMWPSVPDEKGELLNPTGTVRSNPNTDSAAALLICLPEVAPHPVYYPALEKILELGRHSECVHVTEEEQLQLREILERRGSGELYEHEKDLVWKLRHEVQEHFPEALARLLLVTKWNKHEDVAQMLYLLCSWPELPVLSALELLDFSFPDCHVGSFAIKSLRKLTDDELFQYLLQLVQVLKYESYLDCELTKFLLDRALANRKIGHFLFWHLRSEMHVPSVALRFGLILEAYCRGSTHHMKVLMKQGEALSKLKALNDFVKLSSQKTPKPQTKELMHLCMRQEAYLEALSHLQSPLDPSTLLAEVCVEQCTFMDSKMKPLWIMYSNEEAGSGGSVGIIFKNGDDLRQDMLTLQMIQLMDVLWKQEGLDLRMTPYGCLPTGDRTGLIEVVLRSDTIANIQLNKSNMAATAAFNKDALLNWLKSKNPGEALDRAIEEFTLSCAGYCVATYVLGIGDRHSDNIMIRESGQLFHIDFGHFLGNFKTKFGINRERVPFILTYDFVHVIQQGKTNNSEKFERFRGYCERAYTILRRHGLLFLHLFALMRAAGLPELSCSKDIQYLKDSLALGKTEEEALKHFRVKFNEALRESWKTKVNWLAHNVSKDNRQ
Sequence of recombinant PI3 kinase δ (P27986 whole entry partner): as the sequence (P27986 whole entry partner) above
Summary of the method: as §1

[5] = Stereochemical analysis by chiral stationary phase HPLC (atropisomerism); assay type: physicochemical; conditions: for atropisomerism by chiral stationary phase HPLC: chiral stationary phase HPLC (16 different conditions for the examples)
Method: Each of these mobile phase are compatible with the column packings referred to above, providing sixteen different solvent and stationary phase permutations. Modifiers such as triethylamine (0.1%), formic acid (0.1%) may be added to improve the resolution
Semi-preparative Chiral Stationary Phase LC-UV was performed on a Gilson preparative modular system using a Daicel Chiralpak AD semi-prep column ([…], 20×250 mm) and a flow rate of 18 mL/min eluting with an isocratic method over 20 min using […] heptane:IPA and 0.1% triethylamine employing an injection volume of 1.0 mL.

[6] = test system: PMA-differentiated U937 cells; test: MTT Assay (cell viability); assay type: cell-based, Human; conditions: percentage loss of cell viability; for Cell Viability MTT Assay in D-U937 cells at 4 hr: 4 hr in 5% FCS; for Cell Viability MTT Assay in D-U937 cells at 24 hr: 24 hr in 10% FCS
Summary of the method: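 Differentiated U937 cells treated with compound for 4 hr (5% FCS) or 24 hr (10% FCS), then given MTT for 1 hr; formazan dissolved in DMSO and absorbance read at 550 nm. Viability loss expressed as % versus 0.5% DMSO vehicle.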

[7] = dU937, read-out: Cellular Activity IC50 values (H2O2 induced pAkt D-U937 Cells)
[8] = activity range, read-out: PI3 Kinase Inhibition IC50 values at stated Isozyme γ
[9] = activity range, read-out: PI3 Kinase Inhibition IC50 values at stated Isozyme α
[10] = activity range, read-out: PI3 Kinase Inhibition IC50 values at stated Isozyme δ
[11] = dU937, activity range, D-U937 cells, read-out: Cellular Activity IC50 values (H2O2 induced pAkt D-U937 Cells)

Compound | IC50 [1, 7] | IC50 [2, 8] | IC50 [3, 9] | IC50 [4, 10] | atropisomerism by chiral stationary phase HPLC [5] | Cell Viability MTT Assay in D-U937 cells at 4 hr [6] | Cell Viability MTT Assay in D-U937 cells at 24 hr [6] | IC50 [1, 11] | IC50 ([1]; dU937, read-out: Cellular Activity IC50 values (H2O2 induced pAkt (nM) D-U937 Cells)) | IC50 ([2]; read-out: PI3 Kinase Inhibition IC50 values at stated Isozyme (nM) γ) | IC50 ([3]; read-out: PI3 Kinase Inhibition IC50 values at stated Isozyme (nM) α) | IC50 ([4]; read-out: PI3 Kinase Inhibition IC50 values at stated Isozyme (nM) δ) | interconversion of separated atropisomers ([5]; ambient and elevated temperatures, over several days)
C#Cc1cccc2nc(Cn3nc(-c4ccc(O)cc4)c4c(N)ncnc43)n(Cc3ccccc3Cl)c(=O)c12 [Example 9, 2-((4-Amino-3-(4-hydroxyphenyl)-1H-pyrazolo[3,4-d]pyrimidin-1-yl)methyl)-3-(2-chlorobenzyl)-5-ethynyl quinazolin-4(3H)-one] | < 10 nM | 50 to 1000 nM | 50 to 1000 nM | < 50 nM | no evidence for atropisomerism was observed | − (− <30%) | − (− <30%) |  |  |  |  |  | 
C#Cc1cccc2nc(Cn3nc(-c4cccc(O)c4)c4c(N)ncnc43)n(Cc3cccc(Cl)c3)c(=O)c12 [Example 10, 2-((4-Amino-3-(3-hydroxyphenyl)-1H-pyrazolo[3,4-d]pyrimidin-1-yl)methyl)-3-(3-chlorobenzyl)-5-ethynyl quinazolin-4(3H)-one] | < 10 nM | 50 to 1000 nM | 50 to 1000 nM | < 50 nM | no evidence for atropisomerism was observed | − (− <30%) | − (− <30%) |  |  |  |  |  | 
C#Cc1cccc2nc(Cn3nc(-c4ccc(O)cc4)c4c(N)ncnc43)n(Cc3cccc(Cl)c3)c(=O)c12 [Example 11, 2-((4-Amino-3-(4-hydroxyphenyl)-1H-pyrazolo[3,4-d]pyrimidin-1-yl)methyl)-3-(3-chlorobenzyl)-5-ethynyl quinazolin-4(3H)-one] | < 10 nM | 50 to 1000 nM | 50 to 1000 nM | < 50 nM | no evidence for atropisomerism was observed | − (− <30%) | − (− <30%) |  |  |  |  |  | 
C#Cc1cccc2nc(Cn3nc(-c4cccc(O)c4)c4c(N)ncnc43)n(Cc3ccccc3F)c(=O)c12 [Example 12, 2-((4-Amino-3-(3-hydroxyphenyl)-1H-pyrazolo[3,4-d]pyrimidin-1-yl)methyl)-5-ethynyl-3-(2-fluorobenzyl) quinazolin-4(3H)-one] | < 10 nM | 50 to 1000 nM | 50 to 1000 nM | < 50 nM | no evidence for atropisomerism was observed | + (+ >30%) | − (− <30%) |  |  |  |  |  | 
C#Cc1cccc2nc(Cn3nc(-c4ccc(O)cc4)c4c(N)ncnc43)n(Cc3ccccc3F)c(=O)c12 [Example 13, 2-((4-Amino-3-(4-hydroxyphenyl)-1H-pyrazolo[3,4-d]pyrimidin-1-yl)methyl)-5-ethynyl-3-(2-fluorobenzyl) quinazolin-4(3H)-one] | < 10 nM | 50 to 1000 nM | 50 to 1000 nM | < 50 nM | no evidence for atropisomerism was observed | − (− <30%) | − (− <30%) |  |  |  |  |  | 
C#Cc1cccc2nc(Cn3nc(-c4ccc(O)cc4)c4c(N)ncnc43)n(Cc3cccc(OC)c3)c(=O)c12 [Example 14, 2-((4-Amino-3-(4-hydroxyphenyl)-1H-pyrazolo[3,4-d]pyrimidin-1-yl)methyl)-5-ethynyl-3-(3-methoxybenzyl)quinazolin-4(3H)-one] |  | 50 to 1000 nM | 50 to 1000 nM | < 50 nM | no evidence for atropisomerism was observed | − (− <30%) | − (− <30%) | < 10 nM |  |  |  |  | 
C#Cc1cccc2nc(Cn3nc(-c4cccc(O)c4)c4c(N)ncnc43)n(Cc3cccc(OC)c3)c(=O)c12 [Example 15, 2-((4-Amino-3-(3-hydroxyphenyl)-1H-pyrazolo[3,4-d]pyrimidin-1-yl)methyl)-5-ethynyl-3-(3-methoxybenzyl)quinazolin-4(3H)-one] |  | 50 to 1000 nM | > 1000 nM | < 50 nM | no evidence for atropisomerism was observed | − (− <30%) | − (− <30%) | < 10 nM | 0.57 nM | 289 nM | 1970 nM | 4 nM | 
C#Cc1cccc2nc(Cn3nc(-c4ccc(O)cc4)c4c(N)ncnc43)n(Cc3cccc(C(F)(F)F)c3)c(=O)c12 [Example 16, 2-((4-Amino-3-(4-hydroxyphenyl)-1H-pyrazolo[3,4-d]pyrimidin-1-yl)methyl)-5-ethynyl-3-(3-(trifluoromethyl)benzyl)quinazolin-4(3H)-one] |  | 50 to 1000 nM | 50 to 1000 nM | < 50 nM | no evidence for atropisomerism was observed | − (− <30%) | − (− <30%) | < 10 nM |  |  |  |  | 
C#Cc1cccc2nc(Cn3nc(-c4cccc(O)c4)c4c(N)ncnc43)n(Cc3cccc(C(F)(F)F)c3)c(=O)c12 [Example 17, 2-((4-Amino-3-(3-hydroxyphenyl)-1H-pyrazolo[3,4-d]pyrimidin-1-yl)methyl)-5-ethynyl-3-(3-(trifluoromethyl)benzyl)quinazolin-4(3H)-one] |  | > 1000 nM | 50 to 1000 nM | < 50 nM | no evidence for atropisomerism was observed | − (− <30%) | − (− <30%) | < 10 nM |  |  |  |  | 
C#Cc1cccc2nc(Cn3nc(-c4ccc(O)cc4)c4c(N)ncnc43)n(Cc3ccc(Cl)cc3)c(=O)c12 [Example 18, 2-((4-Amino-3-(4-hydroxyphenyl)-1H-pyrazolo[3,4-d]pyrimidin-1-yl)methyl)-3-(4-chlorobenzyl)-5-ethynyl quinazolin-4(3H)-one] |  | 50 to 1000 nM | 50 to 1000 nM | < 50 nM | no evidence for atropisomerism was observed | − (− <30%) | − (− <30%) | < 10 nM |  |  |  |  | 
C#Cc1cccc2nc(Cn3nc(-c4cccc(O)c4)c4c(N)ncnc43)n(Cc3ccc(S(C)(=O)=O)cc3)c(=O)c12 [Example 19, 2-((4-Amino-3-(3-hydroxyphenyl)-1H-pyrazolo[3,4-d]pyrimidin-1-yl)methyl)-5-ethynyl-3-(4-(methylsulfonyl)benzyl)quinazolin-4(3H)-one] |  | 50 to 1000 nM | 50 to 1000 nM | < 50 nM | no evidence for atropisomerism was observed | − (− <30%) | − (− <30%) | < 10 nM |  |  |  |  | 
CN1CCCN(C(=O)CCCC#Cc2cccc3nc(Cn4nc(-c5ccc(O)cc5)c5c(N)ncnc54)n(Cc4ccccc4Cl)c(=O)c23)CC1 [Example 93, 2-((4-Amino-3-(4-hydroxyphenyl)-1H-pyrazolo[3,4-d]pyrimidin-1-yl)methyl)-3-(2-chlorobenzyl)-5-(6-(4-methyl-1,4-diazepan-1-yl)-6-oxohex-1-ynyl)quinazolin-4(3H)-one] |  | < 50 nM | 50 to 1000 nM | < 50 nM |  | − (− <30%) | − (− <30%) | < 10 nM |  |  |  |  | 
COc1cc(-c2nn(Cc3nc4cccc(C#CCCCC(=O)N5CCOCC5)c4c(=O)n3Cc3ccccc3Cl)c3ncnc(N)c23)ccc1O [Example 95, 2-((4-Amino-3-(4-hydroxy-3-methoxyphenyl)-1H-pyrazolo[3,4-d]pyrimidin-1-yl)methyl)-3-(2-chlorobenzyl)-5-(6-morpholino-6-oxohex-1-ynyl)quinazolin-4(3H)-one] |  | < 50 nM | 50 to 1000 nM | < 50 nM |  | − (− <30%) | − (− <30%) | < 10 nM |  |  |  |  | 
Cc1ccccc1-n1c(Cn2nc(-c3cccc(O)c3)c3c(N)ncnc32)nc2cccc(C)c2c1=O [PIK294, reference compound] |  |  |  |  | 1:1 mixture of enantiomeric atropisomers |  |  |  |  |  |  |  | no detectable signs of interconversion
